Source: patent publication US8198273B2, “Compounds and methods for kinase modulation, and indications therefor” (Plexxikon Inc., priority 2009, dated 2012)

Tests used:
[1] = Relative solubility by turbidity in aqueous buffers of varying pH; type: physicochemical; settings: for turbidity threshold (L, M, H) 7.4: HEPES pH 7.4; for turbidity threshold (L, M, H) 4.5: SIF pH 4.5; for turbidity threshold (L, M, H) 6.8: SIF pH 6.8; for turbidity threshold (L, M, H) 1.4: buffer pH 1.4 (SGF)
Procedure: As an indication of relative solubility, the turbidity of compounds in aqueous solutions is assessed. To assess possible compound properties in different physiological compartments, such as stomach, intestine, and blood, a series of aqueous buffers with varying pH is used. Thus each compound is diluted into four different physiologically relevant buffers and solution turbidity is measured by spectrophotometry.
Compounds are dissolved at a concentration of 25 mM in dimethyl sulfoxide, then serially diluted 1:1 into a 96 well plate, diluting 10 times in pure dimethyl sulfoxide, with the final well of each row a dimethyl sulfoxide blank. In an assay plate, 99 μL of appropriate buffer is added to each well, and 1 μL of each sample dilution is added to the buffer, achieving a range of final total concentrations in aqueous solutions having different pH. The buffers used are Simulated Gastric Fluid (SGF-pH 1.5) 0.5M NaCl, pH 1.5; Simulated Intestinal fluid (SIF-pH 4.5 and pH 6.8) 0.05M NaH2PO4, pH 4.5 and 6.8; and Hepes Buffer (HEPES-pH 7.4) 10 mM HEPES, 150 mM NaCl, pH 7.4. Control compounds pyrene, estriol and propranolol HCl are also assessed. Plates are spun and then mixed for 1 minute, and the absorbance is read using a Tecan Safire II to read wavelengths in the visible range (490, 535, and 650 nm) at four locations per well, reflecting the degree of turbidity present. The average optical density for each wavelength in each well is graphed vs. compound concentration, and the concentration at which the curve crosses a threshold O.D. of 0.01 for each wavelength is reported as the endpoint turbidity assay result. The average of the three wavelengths is used to compare turbidity of compounds. Compounds are considered to have low solubility if the threshold concentration is <31.3 04, moderate solubility if the threshold concentration is 31.3 μM to 250 μM, and high solubility if the threshold concentration is >250 μM.

[2] = target: B-Raf (Homo sapiens, UniProt P15056); test: B-Raf biochemical kinase inhibition (AlphaScreen, biotin-MEK1 substrate); settings: 100 μM ATP
Procedure: Compounds to be tested are diluted in dimethyl sulfoxide to a concentration of 0.1 mM. These are serially diluted 15 μL into 30 μL of dimethyl sulfoxide seven times in 96 well plates for a total of 8 dilution points, and for each dilution point 1 μL is added to a well of an assay plate. […] The reaction is started with addition of 10 μL of 200 μM ATP (i.e. final 100 μM ATP). […] The plates are incubated for 3 hours at room temperature and read on Envision reader (Perkin Elmer). […] The signal vs. compound concentration is used to determine the IC50.

[3] = target: CYP2C9 (Homo sapiens, UniProt P11712); test: CYP2C9 inhibition (fluorescent substrate); type: in vitro ADME; settings: CYP2C9, MFC substrate; read-out: Cyp IC50 2C9
Procedure: CYP (Cytochrome P450) enzymes are the major drug metabolizing enzymes present in the liver. The inhibition of CYP enzyme activity (IC50) for each of CYP1A2, CYP2C19, CYP2C9, CYP2D6, CYP3A4(BFC) and CYP3A4(BQ) is determined for compounds, where inhibition of metabolism of a known substrate leads to a decrease in the fluorescence of the metabolized product. The fluorescence of the product is monitored as a function of compound concentration.
(§1) Compounds are dissolved in dimethyl sulfoxide to a concentration of 100 mM. These are diluted 1 μL into 82 μL of acetonitrile. […] These are then serially diluted 1:1 (160 μL to 160 μL co-factor mix) for a total of 10 points. A 10 μL aliquot of this final mixture is dispensed into 384 well assay plates and incubated for 10 minutes at 37° C. […] Assay plates are incubated at 37° C. […] The signal versus compound concentration is used to determine the IC50. The enzymes and substrates for this assay are obtained from BD Biosciences.

[4] = target: CYP3A4(BQ) (Homo sapiens, UniProt P08684); test: CYP3A4(BQ) inhibition (fluorescent substrate); type: in vitro ADME; settings: read-out: Cyp IC50 3A4(BQ)
Procedure: as §1, with “CYP (Cytochrome P450) enzymes are the major drug metabolizing enzymes present in the liver. The inhibition of CYP enzyme activity (IC50) for each of CYP1A2, CYP2C19, CYP2C9, CYP2D6, CYP3A4(BFC) and CYP3A4(BQ) is determined for compounds, where inhibition of metabolism of a known substrate leads to a decrease in the fluorescence of the metabolized product. The fluorescence of the product is monitored as a function of compound concentration. Compounds” for “Compounds”

Sequence of CYP3A4(BQ) (P08684 whole entry): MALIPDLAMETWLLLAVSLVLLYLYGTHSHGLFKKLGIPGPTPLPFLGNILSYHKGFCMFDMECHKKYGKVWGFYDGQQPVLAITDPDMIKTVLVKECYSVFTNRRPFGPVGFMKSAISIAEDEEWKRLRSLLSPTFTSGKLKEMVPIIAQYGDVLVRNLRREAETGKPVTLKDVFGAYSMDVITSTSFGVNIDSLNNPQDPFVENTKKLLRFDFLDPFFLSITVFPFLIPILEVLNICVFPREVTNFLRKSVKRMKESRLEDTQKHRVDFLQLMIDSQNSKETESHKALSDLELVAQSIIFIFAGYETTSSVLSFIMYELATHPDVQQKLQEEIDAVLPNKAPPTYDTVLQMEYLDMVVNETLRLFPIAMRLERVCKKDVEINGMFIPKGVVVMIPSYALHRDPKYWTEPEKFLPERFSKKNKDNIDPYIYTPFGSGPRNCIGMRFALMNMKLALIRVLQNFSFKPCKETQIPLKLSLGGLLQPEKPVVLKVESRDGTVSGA
Sequence of CYP2C9 (P11712 whole entry): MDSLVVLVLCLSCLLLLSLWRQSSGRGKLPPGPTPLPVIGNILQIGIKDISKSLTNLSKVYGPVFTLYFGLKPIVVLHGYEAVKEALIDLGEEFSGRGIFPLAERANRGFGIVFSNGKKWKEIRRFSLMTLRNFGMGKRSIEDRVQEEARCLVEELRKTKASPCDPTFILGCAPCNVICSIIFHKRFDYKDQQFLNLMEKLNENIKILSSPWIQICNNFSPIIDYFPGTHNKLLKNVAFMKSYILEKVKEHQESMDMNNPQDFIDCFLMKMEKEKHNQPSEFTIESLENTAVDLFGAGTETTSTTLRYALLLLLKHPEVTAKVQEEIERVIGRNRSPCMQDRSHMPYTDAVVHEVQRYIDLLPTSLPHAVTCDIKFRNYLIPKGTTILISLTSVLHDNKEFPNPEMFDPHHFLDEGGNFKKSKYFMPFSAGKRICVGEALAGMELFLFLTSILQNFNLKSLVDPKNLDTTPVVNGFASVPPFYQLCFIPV
Sequence of B-Raf (P15056 whole entry): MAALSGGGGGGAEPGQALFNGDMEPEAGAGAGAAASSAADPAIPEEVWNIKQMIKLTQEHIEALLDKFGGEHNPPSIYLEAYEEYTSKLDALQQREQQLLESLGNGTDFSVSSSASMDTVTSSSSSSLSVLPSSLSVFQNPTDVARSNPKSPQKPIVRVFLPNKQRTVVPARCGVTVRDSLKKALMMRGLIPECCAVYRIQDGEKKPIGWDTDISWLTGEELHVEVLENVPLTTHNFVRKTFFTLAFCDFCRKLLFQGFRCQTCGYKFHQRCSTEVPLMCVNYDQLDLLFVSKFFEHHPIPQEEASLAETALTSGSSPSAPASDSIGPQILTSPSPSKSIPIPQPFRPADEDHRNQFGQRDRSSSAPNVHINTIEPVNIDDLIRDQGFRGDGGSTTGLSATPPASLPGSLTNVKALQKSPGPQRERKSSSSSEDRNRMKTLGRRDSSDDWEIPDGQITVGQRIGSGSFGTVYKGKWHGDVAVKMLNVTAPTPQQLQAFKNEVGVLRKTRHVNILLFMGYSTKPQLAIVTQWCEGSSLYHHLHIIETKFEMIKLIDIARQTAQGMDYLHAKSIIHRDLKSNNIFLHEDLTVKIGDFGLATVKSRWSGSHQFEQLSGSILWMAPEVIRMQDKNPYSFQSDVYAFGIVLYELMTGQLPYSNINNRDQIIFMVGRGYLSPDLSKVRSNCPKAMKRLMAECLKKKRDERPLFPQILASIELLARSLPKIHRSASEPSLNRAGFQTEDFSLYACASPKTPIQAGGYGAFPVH

SMILES | turbidity threshold (L, M, H) 7.4 [1] | turbidity threshold (L, M, H) 4.5 [1] | turbidity threshold (L, M, H) 6.8 [1] | turbidity threshold (L, M, H) 1.4 [1] | IC50 [2] [µM] | IC50 [3] [µM] | IC50 [4] [µM]
COc1ccnc2[nH]cc(C(=O)c3c(F)ccc(NS(=O)(=O)c4cc(F)ccc4F)c3F)c12 [P-2022, N-[2,4-Difluoro-3-(4-methoxy-1H-pyrrolo[2,3-b]pyridine-3-carbonyl)-phenyl]-2,5-difluoro-benzenesulfonamide] | H (high solubility if the threshold concentration is >250 μM) | M (moderate solubility if the threshold concentration is 31.3 μM to 250 μM) | M (moderate solubility if the threshold concentration is 31.3 μM to 250 μM) | H (high solubility if the threshold concentration is >250 μM) | < 0.1 | 5 to 10 | –
N#Cc1cnc2[nH]cc(C(=O)c3c(F)ccc(NS(=O)(=O)c4c(F)cccc4F)c3F)c2c1 [P-2029, N-[3-(5-Cyano-1H-pyrrolo[2,3-b]pyridine-3-carbonyl)-2,4-difluoro-phenyl]-2,6-difluoro-benzenesulfonamide] | – | – | – | – | < 0.1 | > 10 | > 10
COc1ccnc2[nH]cc(C(=O)c3c(F)ccc(NS(=O)(=O)c4c(F)cccc4F)c3F)c12 [P-2031, N-[2,4-Difluoro-3-(4-methoxy-1H-pyrrolo[2,3-b]pyridine-3-carbonyl)-phenyl]-2,6-difluoro-benzenesulfonamide] | – | – | – | – | < 1 | > 10 | > 10
O=C(c1c(F)ccc(NS(=O)(=O)c2c(F)cccc2F)c1F)c1c[nH]c2nccc(Cl)c12 [P-2033, N-[3-(4-Chloro-1H-pyrrolo[2,3-b]pyridine-3-carbonyl)-2,4-difluoro-phenyl]-2,6-difluoro-benzenesulfonamide] | – | – | – | – | < 0.1 | > 10 | > 10
N#Cc1ccnc2[nH]cc(C(=O)c3c(F)ccc(NS(=O)(=O)c4cc(F)ccc4F)c3F)c12 [P-2036, N-[3-(4-Cyano-1H-pyrrolo[2,3-b]pyridine-3-carbonyl)-2,4-difluoro-phenyl]-2,5-difluoro-benzenesulfonamide] | – | – | – | – | < 0.01 | > 10 | > 10
N#Cc1ccnc2[nH]cc(C(=O)c3c(F)ccc(NS(=O)(=O)c4c(F)cccc4F)c3F)c12 [P-2037, N-[3-(4-Cyano-1H-pyrrolo[2,3-b]pyridine-3-carbonyl)-2,4-difluoro-phenyl]-2,6-difluoro-benzenesulfonamide] | – | – | – | – | < 0.1 | > 10 | > 10
N#Cc1ccnc2[nH]cc(C(=O)c3c(F)ccc(NS(=O)(=O)c4cccc(F)c4)c3F)c12 [P-2039, N-[3-(4-Cyano-1H-pyrrolo[2,3-b]pyridine-3-carbonyl)-2,4-difluoro-phenyl]-3-fluoro-benzenesulfonamide] | – | – | – | – | < 0.01 | > 10 | > 10
N#Cc1cnc2[nH]cc(C(=O)c3cccc(NS(=O)(=O)c4c(F)cccc4F)c3F)c2c1 [P-2054, N-[3-(5-Cyano-1H-pyrrolo[2,3-b]pyridine-3-carbonyl)-2-fluoro-phenyl]-2,6-difluoro-benzenesulfonamide] | – | – | – | – | < 0.1 | > 10 | > 10
N#Cc1cnc2[nH]cc(C(=O)c3cccc(NS(=O)(=O)c4ccccc4)c3F)c2c1 [P-2056, N-[3-(5-Cyano-1H-pyrrolo[2,3-b]pyridine-3-carbonyl)-2-fluoro-phenyl]-benzenesulfonamide] | M (moderate solubility if the threshold concentration is 31.3 μM to 250 μM) | L (low solubility if the threshold concentration is <31.3 04) | M (moderate solubility if the threshold concentration is 31.3 μM to 250 μM) | L (low solubility if the threshold concentration is <31.3 04) | < 0.1 | – | > 10
N#Cc1cnc2[nH]cc(C(=O)c3c(F)ccc(NS(=O)(=O)c4cccnc4)c3F)c2c1 [P-2072, Pyridine-3-sulfonic acid [3-(5-cyano-1H-pyrrolo[2,3-b]pyridine-3-carbonyl)-2,4-difluoro-phenyl]-amide] | – | – | – | – | < 0.01 | > 10 | < 5
COc1ccnc2[nH]cc(C(=O)c3c(F)ccc(NS(=O)(=O)c4cccnc4)c3F)c12 [P-2073, Pyridine-3-sulfonic acid [2,4-difluoro-3-(4-methoxy-1H-pyrrolo[2,3-b]pyridine-3-carbonyl)-phenyl]-amide] | – | – | – | – | < 0.1 | > 10 | < 5
N#Cc1ccnc2[nH]cc(C(=O)c3c(F)ccc(NS(=O)(=O)c4cccnc4)c3F)c12 [P-2077, Pyridine-3-sulfonic acid [3-(4-cyano-1H-pyrrolo[2,3-b]pyridine-3-carbonyl)-2,4-difluoro-phenyl]-amide] | – | – | – | – | < 0.01 | 5 to 10 | 5 to 10
CCCS(=O)(=O)Nc1ccc(F)c(C(=O)c2c[nH]c3ncc(-c4ccc(Cl)nc4)cc23)c1F [P-2154, Propane-1-sulfonic acid {3-[5-(6-chloro-pyridin-3-yl)-1H-pyrrolo[2,3-b]pyridine-3-carbonyl]-2,4-difluoro-phenyl}-amide] | – | – | – | – | < 0.01 | 5 to 10 | > 10
CCCS(=O)(=O)Nc1ccc(F)c(C(=O)c2c[nH]c3ncc(-c4ccc(S(=O)(=O)NC)cc4)cc23)c1F [P-2167, 4-{3-[2,6-Difluoro-3-(propane-1-sulfonylamino)-benzoyl]-1H-pyrrolo[2,3-b]pyridin-5-yl}-N-methyl-benzenesulfonamide] | – | – | – | – | < 0.01 | 5 to 10 | 5 to 10
CCCS(=O)(=O)Nc1ccc(F)c(C(=O)c2c[nH]c3ncc(-c4ccc(S(=O)(=O)NC5CC5)cc4)cc23)c1F [P-2168, N-Cyclopropyl-4-{3-[2,6-difluoro-3-(propane-1-sulfonylamino)-benzoyl]-1H-pyrrolo[2,3-b]pyridin-5-yl}-benzenesulfonamide] | L (low solubility if the threshold concentration is <31.3 04) | L (low solubility if the threshold concentration is <31.3 04) | L (low solubility if the threshold concentration is <31.3 04) | L (low solubility if the threshold concentration is <31.3 04) | < 0.01 | < 5 | –
CCCS(=O)(=O)Nc1ccc(F)c(C(=O)c2c[nH]c3ncc(-c4cnc(N5CCCC5)nc4)cc23)c1F [P-2219, Propane-1-sulfonic acid {2,4-difluoro-3-[5-(2-pyrrolidin-1-yl-pyrimidin-5-yl)-1H-pyrrolo[2,3-b]pyridine-3-carbonyl]-phenyl}-amide] | L (low solubility if the threshold concentration is <31.3 04) | L (low solubility if the threshold concentration is <31.3 04) | L (low solubility if the threshold concentration is <31.3 04) | M (moderate solubility if the threshold concentration is 31.3 μM to 250 μM) | < 0.1 | > 10 | –
